Our source for the GI50 and TGI values is PubChem BioAssay (NCI).

Among the test systems are BT-549 breast; HCT-15 colon; KM12 colon; M14 melanoma; NCI/ADR-RES ovarian; OVCAR-5 ovarian; UACC-257 melanoma; UO-31 renal.
What all share (experiment): NCI anticancer screen, dose series, 48 h

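Dose response: 5 concentrations. Exposure: 48 h. Format: 96-well plates. Endpoint: linear interpolation; highest concentration if not reached. Here, GI50 denotes the concentration required for 50% inhibition of growth. TGI denotes the concentration required for complete inhibition of growth.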

Consider `Cc1ccc(NS(=O)(=O)c2cc(C)ccc2C)cc1`, for which the GI50 in the experiment on BT-549 breast is 9.62 µM; with HCT-15 colon it was 2.46 µM; with KM12 colon, 1.73 µM; in the experiment with M14 melanoma, 2.43 µM; in the experiment on NCI/ADR-RES ovarian, 1.38 µM; in the experiment with OVCAR-5 ovarian it was 15.4 µM. Also, the GI50 with UACC-257 melanoma is 10.2 µM; in the experiment with UO-31 renal, 12.1 µM. The TGI in the experiment on BT-549 breast was determined as 27.4 µM; with HCT-15 colon, 33.9 µM; in the experiment on KM12 colon, 16.5 µM; with M14 melanoma, 11 µM; with NCI/ADR-RES ovarian, 8.95 µM; with OVCAR-5 ovarian it was 72.4 µM. Besides, the TGI in the experiment with UACC-257 melanoma amounted to 47.4 µM; with UO-31 renal it was 72 µM.

As to `COc1ccc(C(=O)c2cc(OC)c(OC)c(OC)c2)cc1O`, the GI50 was 0.0337 µM with BT-549 breast; under 0.01 µM with HCT-15 colon; under 0.0155 µM in the experiment with KM12 colon; under 0.01 µM in the experiment on M14 melanoma; 0.0118 µM in the experiment with NCI/ADR-RES ovarian; 1.6 µM in the experiment on OVCAR-5 ovarian. Moreover, the GI50 with UACC-257 melanoma is over 100 µM; in the experiment on UO-31 renal it was 0.296 µM. Also, the TGI with BT-549 breast, with HCT-15 colon, with KM12 colon, with M14 melanoma, with NCI/ADR-RES ovarian and in the experiment with OVCAR-5 ovarian was over 100 µM throughout. Besides, the TGI in the experiment on UACC-257 melanoma and with UO-31 renal was over 100 µM throughout.

`O=C(Nc1ccc2oc(=O)c(C(=O)O)cc2c1)Oc1ccccc1`: the TGI in the experiment with BT-549 breast, in the experiment on HCT-15 colon, in the experiment on KM12 colon, in the experiment on M14 melanoma, in the experiment on NCI/ADR-RES ovarian and in the experiment with OVCAR-5 ovarian was over 100 µM in each case. Moreover, the TGI in the experiment on UACC-257 melanoma and with UO-31 renal was over 100 µM throughout.

In the case of `COc1ccc(C2=C(c3cn(C)c4ccccc34)C(=O)NC2=O)cc1OC`, the GI50 is 8.02 µM in the experiment with BT-549 breast; 6.4 µM in the experiment on HCT-15 colon; 6.34 µM in the experiment on KM12 colon; 6.83 µM in the experiment on M14 melanoma; 7.99 µM in the experiment with NCI/ADR-RES ovarian; over 25 µM in the experiment with OVCAR-5 ovarian. The GI50 was over 25 µM in the experiment on UACC-257 melanoma and 4.83 µM in the experiment with UO-31 renal. The TGI in the experiment with BT-549 breast, with HCT-15 colon, in the experiment on KM12 colon, with M14 melanoma, with NCI/ADR-RES ovarian and in the experiment with OVCAR-5 ovarian was over 25 µM throughout. Besides, the TGI in the experiment on UACC-257 melanoma and with UO-31 renal was over 25 µM each time.

For `O=c1[nH]nc2c3c(cccc13)NC(CN1Cc3ccccc3C1)=N2`, the GI50 with BT-549 breast is 34.7 µM; in the experiment with HCT-15 colon, 6.13 µM; in the experiment with KM12 colon, 4.41 µM; in the experiment on M14 melanoma it was 4.08 µM; in the experiment with NCI/ADR-RES ovarian, 25.7 µM; in the experiment with OVCAR-5 ovarian, 5.73 µM. The GI50 in the experiment on UACC-257 melanoma was 37 µM; with UO-31 renal, 4.79 µM. For the same compound, the TGI in the experiment with BT-549 breast, with HCT-15 colon, in the experiment on KM12 colon, in the experiment with M14 melanoma, with NCI/ADR-RES ovarian and with OVCAR-5 ovarian was over 100 µM throughout. Moreover, the TGI in the experiment on UACC-257 melanoma and in the experiment on UO-31 renal was over 100 µM in each case.

Regarding `CCS(=O)(=O)c1ccc(OC)c(Nc2nccc(N(C)c3ccc4c(C)[nH]nc4c3)n2)c1`, the GI50 was 5.76 µM with BT-549 breast; 5.3 µM in the experiment with HCT-15 colon; 5.7 µM in the experiment on KM12 colon; 8.46 µM in the experiment with M14 melanoma; 6.32 µM in the experiment with NCI/ADR-RES ovarian; 5.75 µM with OVCAR-5 ovarian. Further, the GI50 with UACC-257 melanoma is 7.57 µM; with UO-31 renal, 2.05 µM. The TGI is 14.5 µM in the experiment with BT-549 breast; 18.3 µM in the experiment on HCT-15 colon; over 25 µM in the experiment with KM12 colon; over 21.8 µM with M14 melanoma; over 19.4 µM in the experiment on NCI/ADR-RES ovarian; over 22.7 µM with OVCAR-5 ovarian. Moreover, the TGI in the experiment with UACC-257 melanoma is over 24 µM; in the experiment on UO-31 renal, 10.9 µM.

On to `N#CSCC1CC(O)(c2ccccc2)C(c2ccccc2)C(c2ccc(F)cc2)O1` (configuration not stated), for which the GI50 in the experiment on BT-549 breast was 2.32 µM; in the experiment with HCT-15 colon, 3.05 µM; in the experiment on KM12 colon it was 2.32 µM; with M14 melanoma it was 1.84 µM; in the experiment with NCI/ADR-RES ovarian, 3.13 µM; in the experiment on OVCAR-5 ovarian, 7.24 µM. For the same compound, the figures for the GI50 in the experiment on UACC-257 melanoma and with UO-31 renal were 3.66 µM and 2.62 µM, respectively. Besides, the TGI in the experiment on BT-549 breast amounted to 5.39 µM; in the experiment with HCT-15 colon, 10.2 µM; in the experiment with KM12 colon it was 5.85 µM; in the experiment on M14 melanoma, 4.09 µM; in the experiment with NCI/ADR-RES ovarian, 11.9 µM; with OVCAR-5 ovarian, 19.4 µM. Besides, the TGI with UACC-257 melanoma was found to be 13.5 µM; in the experiment on UO-31 renal it was 11.9 µM.

With `O=C(Nc1ccncc1)C(=O)c1cn(S(=O)(=O)c2ccccc2F)c2ccccc12`, the GI50 in the experiment on BT-549 breast was 4.41 µM; in the experiment with HCT-15 colon, 0.546 µM; in the experiment with KM12 colon, 0.837 µM; with M14 melanoma, 0.979 µM; with NCI/ADR-RES ovarian, 0.579 µM; with OVCAR-5 ovarian it was 5.38 µM. Also, the GI50 in the experiment with UACC-257 melanoma is 5.51 µM; in the experiment on UO-31 renal, 3.66 µM. Besides, the TGI with BT-549 breast is 54.8 µM; in the experiment on HCT-15 colon it was over 100 µM; with KM12 colon it was over 100 µM; in the experiment on M14 melanoma it was over 100 µM; in the experiment on NCI/ADR-RES ovarian, over 100 µM; in the experiment with OVCAR-5 ovarian it was 98.2 µM. For the same compound, the values for the TGI in the experiment with UACC-257 melanoma and in the experiment on UO-31 renal were over 78.4 µM and over 95 µM, respectively.

`Cn1c2ccccc2c2nnc(N/N=C/c3ccccn3)nc21`: the GI50 in the experiment on BT-549 breast was 0.452 µM; with HCT-15 colon it was 0.374 µM; in the experiment with KM12 colon, 0.535 µM; in the experiment on M14 melanoma it was 0.285 µM; in the experiment on NCI/ADR-RES ovarian, 0.336 µM; in the experiment with OVCAR-5 ovarian, 1.27 µM. Further, the GI50 was 0.433 µM in the experiment on UACC-257 melanoma and 0.361 µM with UO-31 renal. Further, the TGI with BT-549 breast is over 38.9 µM; in the experiment with HCT-15 colon it was over 100 µM; with KM12 colon it was over 38.3 µM; with NCI/ADR-RES ovarian, 8.89 µM; in the experiment on OVCAR-5 ovarian, over 72.4 µM; in the experiment with UO-31 renal, 5.3 µM.

On to `C=C1C(=O)O[C@@H]2C[C@@H](C)[C@@H]3[C@@H](OC4OC(COC(C)=O)C(O)C(O)C4O)CC(=O)[C@@]3(C)C[C@H]12` (some centres not stated), for which the TGI came out at 3.13 µM in the experiment on BT-549 breast; 0.582 µM in the experiment on HCT-15 colon; 22.9 µM in the experiment with KM12 colon; 2.85 µM in the experiment on M14 melanoma; 14.5 µM in the experiment with NCI/ADR-RES ovarian; 8.07 µM with OVCAR-5 ovarian. The TGI amounted to 3.49 µM in the experiment with UACC-257 melanoma and 3.38 µM in the experiment on UO-31 renal.
